Measurements: patent US8637510B2, “Morpholinothiazoles as alpha 7 positive allosteric modulators” (Janssen Pharmaceutica NV, priority 2009, dated 2014)

Experiments:
human alpha 7-wt nAChR = biological target: T1, human alpha 7-wt nAChR (Homo sapiens, UniProt P36544); assay: Ca2+ flux imaging (FDSS) (Protocol B); type: cell-based; details: for Emax: efficacy of 100 μM choline defined as 100% in the absence of a PAM, read-out: a7-PAM-G_[33]_Eff_Curve_FI % Efficacy; for EC50: potentiation of 100 μM choline, compounds 0.01 μM to 30 μM, read-out: a7-PAM-G_[33]_pEC50 pEC50 (converted)
T1 construct: expressed in transfected cells
Procedure, shortened: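 PAM activity was measured as FDSS calcium fluorescence in α7-wt nAChR cells loaded with 2 μM Fluo-4AM, with compounds at 0.01–30 μM added alongside or 10 min ahead of sub-maximal 100 μM choline. Peak responses were normalised to choline-only efficacy, and EC50 was taken at half-maximal effect.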

[1] = biological target: T2, human alpha 7-wt nAChR-expressing GH4C1 cells (Homo sapiens, UniProt P36544); assay: Patch-clamp current recording (whole-cell voltage-clamp, PAM type classification); type: cell-based; set-up: key: Type 0 compounds minimally change the effect size of the current elicited by 1 mM choline.; Type 1 compounds enhance the effect size of the current elicited by 1 mM choline but minimally alter the kinetics of the receptor.; Type 2 compounds enhance the effect size of the current elicited by 1 mM choline while reducing the rate and/or the extent of desensitization.; Type 3 compounds enhance the effect size of the current elicited by 1 mM choline. When tested at higher concentrations up to 10 μM they completely inhibit desensitization; Type 4 compounds allow for an initial desensitization of the receptor followed by a re-opening of the receptor during agonist application; details: 1 mM choline
T2 construct: expressed in transfected cells
Procedure, shortened: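 Whole-cell voltage clamp of GH4C1 cells stably expressing human wild-type α7 nAChR, with compound co-applied with 1 mM choline via rapid (<100 ms) solution switching; external pH 7.3, CsCl-based internal solution, 1.5-3 MΩ electrodes. PAM type (0-4) assigned from current kinetics when peak potentiation reached ≥200% of control choline response.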

T1 sequence (P36544 23-502): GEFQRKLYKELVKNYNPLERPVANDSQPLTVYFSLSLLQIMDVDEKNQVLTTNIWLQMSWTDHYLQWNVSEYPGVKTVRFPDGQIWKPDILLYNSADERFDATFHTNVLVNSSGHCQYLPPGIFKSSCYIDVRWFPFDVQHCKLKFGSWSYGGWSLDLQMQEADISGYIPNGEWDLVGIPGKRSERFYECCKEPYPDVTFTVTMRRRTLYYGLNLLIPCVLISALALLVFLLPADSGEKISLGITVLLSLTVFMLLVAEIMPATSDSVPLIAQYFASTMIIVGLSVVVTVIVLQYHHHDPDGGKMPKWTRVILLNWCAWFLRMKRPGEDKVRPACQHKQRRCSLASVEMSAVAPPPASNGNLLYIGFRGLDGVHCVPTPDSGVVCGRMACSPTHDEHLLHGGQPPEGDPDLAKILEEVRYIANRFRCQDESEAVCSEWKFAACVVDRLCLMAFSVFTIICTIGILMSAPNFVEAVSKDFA
T2 sequence (P36544 23-502): as above

| Emax (human alpha 7-wt nAChR) [%] | EC50 (human alpha 7-wt nAChR) [nM] | melting point [°C] | Structure (SMILES) | PAM_Type PAM type [1] |
| --- | --- | --- | --- | --- |
| 796 | 186 | 174 | Cc1cc(-c2sc(N3C[C@@H](C)O[C@@H](C)C3)nc2CNC(=O)CC2CC2)cc(C)n1 [Compound 1, N-[[2-[(2R,6S)-2,6-dimethyl-4-morpholinyl]-5-(2,6-dimethyl-4-pyridinyl)-4-thiazolyl]methyl]-cyclopropaneacetamide] | 2 |
| 815 | 380 | 141 | Cc1cc(-c2sc(N3C[C@@H](C)O[C@@H](C)C3)nc2CNC(=O)c2conc2C)cc(C)n1 [Compound 18, N-[[2-[(2R,6S)-2,6-dimethyl-4-morpholinyl]-5-(2,6-dimethyl-4-pyridinyl)-4-thiazolyl]methyl]-3-methyl-4-isoxazolecarboxamide] | 2 |
